From patent US9012443B2 (Amgen Inc., priority 2011, dated 2015)
Like-named read-outs stand apart in the source and are kept apart here.

Legend:
Nav 1.5 = Nav 1.5 (Homo sapiens (Human), UniProt Q14524); experiment: Nav 1.5 in vitro PX assay (PatchXpress whole cell voltage clamp); type: cell-based
How it was run: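 HEK293 cells stably expressing Nav 1.5, whole-cell voltage clamp held at −50 mV; 20 msec test pulses to 0 mV at 0.1 Hz, each preceded by a step to −120 mV.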

Nav 1.7 = Nav 1.7 (Homo sapiens (Human), UniProt Q15858); experiment: Nav 1.7 in vitro PX assay (PatchXpress whole cell voltage clamp); type: cell-based; settings: 293 cells, human Nav1.7, partially inactivated state; read-out: Nav1.7 PX IC50 IP
Nav 1.7, sequence (Q15858 whole entry): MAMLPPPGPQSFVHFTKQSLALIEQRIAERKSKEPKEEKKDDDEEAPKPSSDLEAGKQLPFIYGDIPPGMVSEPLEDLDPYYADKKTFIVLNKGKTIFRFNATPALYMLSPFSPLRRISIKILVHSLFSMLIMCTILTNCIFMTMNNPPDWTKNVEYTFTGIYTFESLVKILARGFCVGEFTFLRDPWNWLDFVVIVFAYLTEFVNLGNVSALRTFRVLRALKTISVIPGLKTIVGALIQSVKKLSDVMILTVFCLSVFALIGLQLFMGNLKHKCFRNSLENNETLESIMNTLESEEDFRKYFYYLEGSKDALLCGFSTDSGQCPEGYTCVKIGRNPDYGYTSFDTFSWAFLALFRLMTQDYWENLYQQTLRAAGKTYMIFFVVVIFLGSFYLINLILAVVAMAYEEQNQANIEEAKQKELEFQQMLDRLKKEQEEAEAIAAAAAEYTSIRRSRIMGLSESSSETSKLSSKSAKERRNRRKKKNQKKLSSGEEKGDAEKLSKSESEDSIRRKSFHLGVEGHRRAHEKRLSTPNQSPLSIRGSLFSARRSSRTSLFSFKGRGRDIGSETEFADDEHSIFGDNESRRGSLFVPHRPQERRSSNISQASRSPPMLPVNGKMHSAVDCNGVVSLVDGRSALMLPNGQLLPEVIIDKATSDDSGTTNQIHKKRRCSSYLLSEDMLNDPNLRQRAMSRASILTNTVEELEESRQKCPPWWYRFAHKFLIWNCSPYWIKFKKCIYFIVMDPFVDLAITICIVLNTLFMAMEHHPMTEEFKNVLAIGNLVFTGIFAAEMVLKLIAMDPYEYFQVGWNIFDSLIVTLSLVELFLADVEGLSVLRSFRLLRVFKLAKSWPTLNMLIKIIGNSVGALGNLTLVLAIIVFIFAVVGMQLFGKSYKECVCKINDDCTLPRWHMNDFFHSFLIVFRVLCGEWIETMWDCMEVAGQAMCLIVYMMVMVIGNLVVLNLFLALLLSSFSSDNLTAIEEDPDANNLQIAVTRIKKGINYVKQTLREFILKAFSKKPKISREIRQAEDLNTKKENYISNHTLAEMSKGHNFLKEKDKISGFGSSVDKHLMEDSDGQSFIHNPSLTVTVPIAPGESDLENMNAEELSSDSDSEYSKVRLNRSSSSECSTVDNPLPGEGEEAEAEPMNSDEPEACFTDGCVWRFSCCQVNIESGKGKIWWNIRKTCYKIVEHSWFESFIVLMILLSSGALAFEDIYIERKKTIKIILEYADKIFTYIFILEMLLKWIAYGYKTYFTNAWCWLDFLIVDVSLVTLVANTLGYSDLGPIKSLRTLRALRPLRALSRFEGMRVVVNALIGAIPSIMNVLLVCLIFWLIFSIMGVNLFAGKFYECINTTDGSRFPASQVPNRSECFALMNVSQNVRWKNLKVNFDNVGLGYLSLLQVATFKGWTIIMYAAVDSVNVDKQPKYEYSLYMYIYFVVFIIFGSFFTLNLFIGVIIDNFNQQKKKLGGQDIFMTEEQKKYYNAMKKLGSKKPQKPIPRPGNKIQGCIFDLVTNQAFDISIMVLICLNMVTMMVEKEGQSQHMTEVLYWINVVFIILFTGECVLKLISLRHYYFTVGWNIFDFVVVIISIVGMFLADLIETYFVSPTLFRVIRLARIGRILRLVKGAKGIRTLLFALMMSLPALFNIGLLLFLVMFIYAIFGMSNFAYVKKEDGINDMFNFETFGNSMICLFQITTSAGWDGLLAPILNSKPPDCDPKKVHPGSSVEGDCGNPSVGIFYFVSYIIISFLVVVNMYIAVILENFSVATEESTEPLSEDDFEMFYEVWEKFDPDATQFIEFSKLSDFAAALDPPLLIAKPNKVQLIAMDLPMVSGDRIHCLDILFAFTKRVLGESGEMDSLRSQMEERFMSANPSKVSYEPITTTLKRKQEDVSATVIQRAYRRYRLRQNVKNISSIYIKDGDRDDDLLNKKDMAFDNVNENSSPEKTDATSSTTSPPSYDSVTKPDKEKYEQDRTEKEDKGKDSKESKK
How it was run: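 Partially inactivated channel state (holding potential for 20–50% inactivation) probed in human Nav1.7-transfected 293 cells by automated patch clamp, test pulse −10 mV for 20 msec.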

[1] = 293 cells stably transfected with Nav 1.5, second part of table, read-out: Nav1.5 PX IC50

Nav 1.5, sequence (Q14524 whole entry): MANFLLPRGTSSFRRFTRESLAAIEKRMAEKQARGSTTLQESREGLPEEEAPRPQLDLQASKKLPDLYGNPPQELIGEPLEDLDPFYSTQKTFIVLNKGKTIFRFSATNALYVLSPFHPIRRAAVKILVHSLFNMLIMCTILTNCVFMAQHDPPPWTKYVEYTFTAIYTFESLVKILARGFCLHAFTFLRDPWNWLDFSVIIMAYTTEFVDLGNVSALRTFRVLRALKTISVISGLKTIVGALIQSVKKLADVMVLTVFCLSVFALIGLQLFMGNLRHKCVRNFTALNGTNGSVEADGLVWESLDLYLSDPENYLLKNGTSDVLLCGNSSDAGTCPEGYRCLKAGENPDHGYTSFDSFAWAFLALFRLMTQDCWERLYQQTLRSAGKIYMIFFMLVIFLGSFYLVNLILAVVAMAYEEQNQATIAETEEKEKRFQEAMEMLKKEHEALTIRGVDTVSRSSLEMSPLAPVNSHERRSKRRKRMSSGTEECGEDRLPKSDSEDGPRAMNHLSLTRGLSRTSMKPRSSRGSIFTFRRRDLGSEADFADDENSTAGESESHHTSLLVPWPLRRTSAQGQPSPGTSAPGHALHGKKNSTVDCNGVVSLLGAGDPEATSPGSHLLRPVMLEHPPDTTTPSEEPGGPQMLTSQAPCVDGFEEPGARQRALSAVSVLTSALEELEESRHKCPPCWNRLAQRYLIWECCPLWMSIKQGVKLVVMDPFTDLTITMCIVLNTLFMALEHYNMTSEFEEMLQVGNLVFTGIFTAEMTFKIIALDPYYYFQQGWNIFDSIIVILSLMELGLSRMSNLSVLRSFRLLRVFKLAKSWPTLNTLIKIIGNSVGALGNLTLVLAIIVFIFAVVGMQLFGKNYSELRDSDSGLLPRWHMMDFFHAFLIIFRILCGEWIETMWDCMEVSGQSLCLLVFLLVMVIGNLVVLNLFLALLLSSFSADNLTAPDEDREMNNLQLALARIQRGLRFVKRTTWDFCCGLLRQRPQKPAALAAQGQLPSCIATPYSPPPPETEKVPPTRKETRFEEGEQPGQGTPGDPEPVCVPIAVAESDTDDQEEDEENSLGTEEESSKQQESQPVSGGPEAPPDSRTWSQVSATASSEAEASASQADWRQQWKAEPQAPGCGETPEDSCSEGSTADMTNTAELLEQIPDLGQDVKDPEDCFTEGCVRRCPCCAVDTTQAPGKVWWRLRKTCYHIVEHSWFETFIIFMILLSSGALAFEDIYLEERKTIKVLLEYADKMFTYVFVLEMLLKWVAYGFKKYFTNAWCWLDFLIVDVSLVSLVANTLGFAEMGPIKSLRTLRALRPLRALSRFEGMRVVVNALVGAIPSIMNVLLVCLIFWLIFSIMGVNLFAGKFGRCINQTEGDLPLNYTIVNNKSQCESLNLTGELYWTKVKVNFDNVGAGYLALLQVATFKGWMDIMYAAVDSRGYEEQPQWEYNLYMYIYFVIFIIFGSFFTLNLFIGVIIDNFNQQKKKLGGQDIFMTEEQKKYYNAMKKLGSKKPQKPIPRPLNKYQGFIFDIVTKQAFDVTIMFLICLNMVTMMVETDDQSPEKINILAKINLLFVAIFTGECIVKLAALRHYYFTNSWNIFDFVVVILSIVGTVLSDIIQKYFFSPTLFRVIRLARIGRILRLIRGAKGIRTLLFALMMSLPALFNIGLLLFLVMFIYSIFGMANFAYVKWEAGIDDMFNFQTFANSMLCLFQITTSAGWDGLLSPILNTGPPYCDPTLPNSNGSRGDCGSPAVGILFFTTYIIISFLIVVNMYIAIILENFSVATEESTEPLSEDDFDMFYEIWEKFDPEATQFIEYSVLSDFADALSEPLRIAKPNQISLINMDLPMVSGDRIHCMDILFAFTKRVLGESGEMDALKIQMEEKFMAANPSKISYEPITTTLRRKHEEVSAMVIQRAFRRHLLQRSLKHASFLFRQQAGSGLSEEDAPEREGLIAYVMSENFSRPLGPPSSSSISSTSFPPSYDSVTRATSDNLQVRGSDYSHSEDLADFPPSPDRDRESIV

| IC50 (Nav 1.7) [nM] | Structure (SMILES) | IC50 (Nav 1.5; [1]) [nM] | IC50 (Nav 1.5) [nM] |
| --- | --- | --- | --- |
| 177 | COc1ccc(Cl)cc1-c1n[nH]c(=O)c2cc(S(=O)(=O)Nc3ncc(F)s3)ccc12 [Example 507, 1-(5-CHLORO-2-METHOXYPHENYL)-N-(5-FLUOROTHIAZOL-2-YL)-4-OXO-3,4-DIHYDROPHTHALAZINE-6-SULFONAMIDE] | > 30000 |  |
| 218 | COc1ccc(-c2cccc(F)c2)cc1-c1n[nH]c(=O)c2cc(S(=O)(=O)Nc3ccncn3)ccc12 [Example 509, 1-(3′-FLUORO-4-METHOXY-[1,1′-BIPHENYL]-3-YL)-4-OXO-N-(PYRIMIDIN-4-YL)-3,4-DIHYDROPHTHALAZINE-6-SULFONAMIDE] | > 30000 |  |
| 464 | COc1cc(C(F)(F)F)ccc1-c1nc(C)nc2cc(S(=O)(=O)Nc3nccs3)ccc12 [Example 510, 4-(2-METHOXY-4-(TRIFLUOROMETHYL)PHENYL)-2-METHYL-N-(THIAZOL-2-YL)QUINAZOLINE-7-SULFONAMIDE] | > 30000 |  |
| 257 | COc1nc(-c2ccc(C(F)(F)F)cc2OC)c2ccc(S(=O)(=O)Nc3nccs3)cc2n1 [Example 511, 2-methoxy-4-(2-methoxy-4-(trifluoromethyl)phenyl)-N-(thiazol-2-yl)quinazoline-7-sulfonamide] | > 30000 |  |
| 234 | COc1cc(C(F)F)c(F)cc1-c1ncnc2cc(S(=O)(=O)Nc3nccs3)ccc12 [Example 512, 4-(4-(DIFLUOROMETHYL)-5-FLUORO-2-METHOXYPHENYL)-N-(THIAZOL-2-YL)QUINAZOLINE-7-SULFONAMIDE] | > 30000 |  |
| 783 | COc1cc(C(F)F)c(F)cc1-c1ncnc2cc(S(=O)(=O)Nc3cscn3)ccc12 [Example 513, 4-(4-(difluoromethyl)-5-fluoro-2-methoxyphenyl)-N-(thiazol-4-yl)quinazoline-7-sulfonamide] | > 30000 |  |
| 383 | COc1cc(C(F)F)c(F)cc1-c1nc(C)nc2cc(S(=O)(=O)Nc3nccs3)ccc12 [Example 514, 4-(4-(difluoromethyl)-5-fluoro-2-methoxyphenyl)-2-methyl-N-(thiazol-2-yl)quinazoline-7-sulfonamide] | > 30000 |  |
| 478 | COc1cc(C(F)F)ccc1-c1nc(C)nc2cc(S(=O)(=O)Nc3nccs3)ccc12 [Example 515, 4-(4-(difluoromethyl)-2-methoxyphenyl)-2-methyl-N-(thiazol-2-yl)quinazoline-7-sulfonamide] | > 30000 |  |
| 34 | COc1cc(-c2cccc(F)c2)c(Cl)cc1-c1ncnc2cc(S(=O)(=O)Nc3nncs3)ccc12 [Example 522, 4-(2-CHLORO-3′-FLUORO-5-METHOXY-[1,1′-BIPHENYL]-4-YL)-N-(1,3,4-THIADIAZOL-2-YL)QUINAZOLINE-7-SULFONAMIDE] | > 30000 |  |
| 65 | COc1cc(-c2cccc(F)c2)c(Cl)cc1-c1ncnc2cc(S(=O)(=O)Nc3ccncn3)ccc12 [Example 523, 4-(2-CHLORO-3′-FLUORO-5-METHOXY-[1,1′-BIPHENYL]-4-YL)-N-(PYRIMIDIN-4-YL)QUINAZOLINE-7-SULFONAMIDE] | 6590 |  |
| 100 | COc1cc(Cl)ccc1-c1ncnc2cc(S(=O)(=O)Nc3ncns3)ccc12 [Example 524, 4-(4-CHLORO-2-METHOXYPHENYL)-N-(1,2,4-THIADIAZOL-5-YL)QUINAZOLINE-7-SULFONAMIDE] | > 30000 |  |
| 58 | COc1cc(-c2cccc(F)c2)ccc1-c1ncnc2cc(S(=O)(=O)Nc3ncns3)ccc12 [Example 525, 4-(3′-FLUORO-3-METHOXY-[1,1′-BIPHENYL]-4-YL)-N-(1,2,4-THIADIAZOL-5-YL)QUINAZOLINE-7-SULFONAMIDE] | > 30000 |  |

Continued, molecule first:

| Structure (SMILES) | IC50 (Nav 1.7) [nM] | IC50 (Nav 1.5; [1]) [nM] | IC50 (Nav 1.5) [nM] |
| --- | --- | --- | --- |
| COc1cc(-c2ccc(C)c(F)c2)ccc1-c1nccc2cc(S(=O)(=O)Nc3ccncn3)ccc12 [Example 471, 1-(3′-FLUORO-3-METHOXY-4′-METHYL-[1,1′-BIPHENYL]-4-YL)-N-(PYRIMIDIN-4-YL)ISOQUINOLINE-6-SULFONAMIDE] | 56 | > 30000 |  |
| COc1cc(-c2cc(C)cc(F)c2)ccc1-c1nccc2cc(S(=O)(=O)Nc3ccncn3)ccc12 [Example 472, 1-(3′-FLUORO-3-METHOXY-5′-METHYL-[1,1′-BIPHENYL]-4-YL)-N-(PYRIMIDIN-4-YL)ISOQUINOLINE-6-SULFONAMIDE] | 63 | > 30000 |  |
| COc1cc(-c2ccc(-c3nccc4cc(S(=O)(=O)Nc5ccncn5)ccc34)c(OC)c2)ccc1F [Example 484, 1-(4′-FLUORO-3,3′-DIMETHOXY-[1,1′-BIPHENYL]-4-YL)-N-(PYRIMIDIN-4-YL)ISOQUINOLINE-6-SULFONAMIDE] | 177 | > 30000 |  |
| COc1cc(F)cc(-c2ccc(-c3nccc4cc(S(=O)(=O)Nc5ccncn5)ccc34)c(OC)c2)c1 [Example 485, 1-(3′-FLUORO-3,5′-DIMETHOXY-[1,1′-BIPHENYL]-4-YL)-N-(PYRIMIDIN-4-YL)ISOQUINOLINE-6-SULFONAMIDE] | 128 | > 30000 |  |
| COc1cc(-c2ccc(F)c(C#N)c2)ccc1-c1nccc2cc(S(=O)(=O)Nc3ccncn3)ccc12 [Example 486, 1-(3′-CYANO-4′-FLUORO-3-METHOXY-[1,1′-BIPHENYL]-4-YL)-N-(PYRIMIDIN-4-YL)ISOQUINOLINE-6-SULFONAMIDE] | 338 | > 30000 |  |
| COc1cc(-c2cc(F)cc(C#N)c2)ccc1-c1nccc2cc(S(=O)(=O)Nc3ccncn3)ccc12 [Example 487, 1-(3′-CYANO-5′-FLUORO-3-METHOXY-[1,1′-BIPHENYL]-4-YL)-N-(PYRIMIDIN-4-YL)ISOQUINOLINE-6-SULFONAMIDE] | 287 | > 30000 |  |
| COc1cc(-c2ccc(F)c(C)c2)ccc1-c1nccc2cc(S(=O)(=O)Nc3ccncn3)ccc12 [Example 488, 1-(4′-FLUORO-3-METHOXY-3′-METHYL-[1,1′-BIPHENYL]-4-YL)-N-(PYRIMIDIN-4-YL)ISOQUINOLINE-6-SULFONAMIDE] | 99 | > 30000 |  |
| COc1cc(-c2ccc(F)c(Cl)c2)ccc1-c1nccc2cc(S(=O)(=O)Nc3ccncn3)ccc12 [Example 490, 1-(3′-CHLORO-4′-FLUORO-3-METHOXY-[1,1′-BIPHENYL]-4-YL)-N-(PYRIMIDIN-4-YL)ISOQUINOLINE-6-SULFONAMIDE] | 62 | > 30000 |  |
| COc1cc(-c2cc(F)cc(Cl)c2)ccc1-c1nccc2cc(S(=O)(=O)Nc3ccncn3)ccc12 [Example 491, 1-(3′-CHLORO-5′-FLUORO-3-METHOXY-[1,1′-BIPHENYL]-4-YL)-N-(PYRIMIDIN-4-YL)ISOQUINOLINE-6-SULFONAMIDE] | 101 | > 30000 |  |
| COc1cc(-c2ccc(Cl)c(F)c2)ccc1-c1nccc2cc(S(=O)(=O)Nc3ccncn3)ccc12 [Example 492, 1-(4′-CHLORO-3′-FLUORO-3-METHOXY-[1,1′-BIPHENYL]-4-YL)-N-(PYRIMIDIN-4-YL)ISOQUINOLINE-6-SULFONAMIDE] | 69 | > 30000 |  |
| COc1cc(-c2ccc(Cl)c(C)c2)ccc1-c1nccc2cc(S(=O)(=O)Nc3ccncn3)ccc12 [Example 493, 1-(4′-CHLORO-3-METHOXY-3′-METHYL-[1,1′-BIPHENYL]-4-YL)-N-(PYRIMIDIN-4-YL)ISOQUINOLINE-6-SULFONAMIDE] | 86 | > 30000 |  |
| COc1cc(-c2ccc(C)c(Cl)c2)ccc1-c1nccc2cc(S(=O)(=O)Nc3ccncn3)ccc12 [Example 494, 1-(3′-CHLORO-3-METHOXY-4′-METHYL-[1,1′-BIPHENYL]-4-YL)-N-(PYRIMIDIN-4-YL)ISOQUINOLINE-6-SULFONAMIDE] | 78 | > 30000 |  |
| COc1cc(-c2cc(C)cc(Cl)c2)ccc1-c1nccc2cc(S(=O)(=O)Nc3ccncn3)ccc12 [Example 495, 1-(3′-CHLORO-3-METHOXY-5′-METHYL-[1,1′-BIPHENYL]-4-YL)-N-(PYRIMIDIN-4-YL)ISOQUINOLINE-6-SULFONAMIDE] | 95 | 19100 |  |
| COc1cc(C(F)(F)F)ccc1-c1nccc2cc(S(=O)(=O)Nc3cscn3)ccc12 [Example 497, 1-(2-METHOXY-4-(TRIFLUOROMETHYL)PHENYL)-N-(THIAZOL-4-YL)ISOQUINOLINE-6-SULFONAMIDE] | 786 | > 30000 |  |
| COc1nc(-c2cccc(F)c2)c(Cl)cc1-c1nccc2cc(S(=O)(=O)Nc3nncs3)ccc12 [Example 498, 1-(5-CHLORO-6-(3-FLUOROPHENYL)-2-METHOXYPYRIDIN-3-YL)-N-(1,3,4-THIADIAZOL-2-YL)ISOQUINOLINE-6-SULFONAMIDE] | 760 | > 30000 |  |
| COc1ccc(Cl)cc1-c1n[nH]c(=O)c2cc(S(=O)(=O)Nc3nccs3)ccc12 [Example 501, 1-(5-CHLORO-2-METHOXYPHENYL)-4-OXO-N-(THIAZOL-2-YL)-3,4-DIHYDROPHTHALAZINE-6-SULFONAMIDE] | 124 |  | > 30000 |
| COc1ccc(Cl)cc1-c1n[nH]c(=O)c2cc(S(=O)(=O)Nc3ncns3)ccc12 [Example 505, 1-(5-CHLORO-2-METHOXYPHENYL)-4-OXO-N-(1,2,4-THIADIAZOL-5-YL)-3,4-DIHYDROPHTHALAZINE-6-SULFONAMIDE] | 258 | > 30000 |  |
| COc1cc(-c2cccc(F)c2)c(Cl)cc1-c1ncnc2cc(S(=O)(=O)Nc3ncns3)ccc12 [Example 521, 4-(2-CHLORO-3′-FLUORO-5-METHOXY-[1,1′-BIPHENYL]-4-YL)-N-(1,2,4-THIADIAZOL-5-YL)QUINAZOLINE-7-SULFONAMIDE] | 19 | 4750 |  |
| COc1cc(-c2cccc(F)c2)ccc1-c1ncnc2cc(S(=O)(=O)Nc3ccncn3)ccc12 [Example 527, 4-(3′-FLUORO-3-METHOXY-[1,1′-BIPHENYL]-4-YL)-N-(PYRIMIDIN-4-YL)QUINAZOLINE-7-SULFONAMIDE] | 252 | > 30000 |  |
